According to ChEMBL document CHEMBL1132826, “6-Hydroxy-1,3-dioxin-4-ones as non-peptidic HIV protease inhibitors” (Bioorg Med Chem Lett, 2000):

Tests used:
[1] = Ratio of compound cytotoxic concentration (CC50) to that of antiviral activity (EC50); type: functional
[2] = biological target: Human immunodeficiency virus type 1 protease (Human immunodeficiency virus 1, UniProt Q72874); assay: Compound was evaluated for the inhibitory activity towards HIV protease
MT4 [3] = assay: Compound was evaluated for the antiviral activity in HIV-I IIIB infected MT-4 cells assay; type: functional, cell-based; settings: Homo sapiens
MT4 [4] = assay: Cytotoxic concentration was measured in HIV-I IIIB infected MT-4 cells assay; type: functional; settings: Homo sapiens

| SMILES | IC50 [2] [µM] | SI [1] | EC50 (MT4 [3]) [µM] | CC50 (MT4 [4]) [µM] |
| --- | --- | --- | --- | --- |
| CCCC1(CCc2ccccc2)OC(=O)C(C(CC)c2cccc(NS(=O)(=O)c3ccc([N+](=O)[O-])cn3)c2)=C(O)O1 (stereo not given) | 0.065 | <1 | > 14.8 | 14.8 |
| CCCC1(CCc2ccccc2)OC(=O)C(C(CC)c2cccc(NS(=O)(=O)c3ccc(C#N)cc3)c2)=C(O)O1 (stereo not given) | 0.015 | <1 | > 66.5 | 66.5 |
| CCC[C@]1(CCc2ccccc2)OC(=O)C([C@H](CC)c2cccc(NS(=O)(=O)c3ccc(C(F)(F)F)cn3)c2)=C(O)O1 (racemic) | 0.05 |  |  |  |

Compounds with a lower IC50 [2], results first:

| IC50 [2] [µM] | SMILES | SI [1] | EC50 (MT4 [3]) [µM] | CC50 (MT4 [4]) [µM] |
| --- | --- | --- | --- | --- |
| 0.013 | CCCC1(CCc2ccccc2)OC(=O)C(C(CC)c2cccc(NS(=O)(=O)c3ccc(N)cn3)c2)=C(O)O1 (stereo not given) | <1 | > 70 | 70 |
| 0.013 | CCCC1(CCc2ccccc2)OC(=O)C(C(CC)c2cccc(NS(=O)(=O)c3ccccn3)c2)=C(O)O1 (stereo not given) | >2.05 | 86.7 | > 178 |
| 0.01 | CCCC1(CCc2ccccc2)OC(=O)C(C(CC)c2cccc(NS(=O)(=O)c3ccc(C(F)(F)F)cn3)c2)=C(O)O1 (stereo not given) | 65.69 | 0.96 | 63 |
| 0.003 | CCCC1(CCc2ccccc2)OC(=O)C(C(CC)c2cccc(NS(=O)(=O)c3ccc(C#N)cn3)c2)=C(O)O1 (stereo not given) | 6.77 | 11.4 | 77 |
